Where “and” joins values, the source holds several entries; their conditions need not be identical. Equal entries are not always repeated.
What was measured:
[1] = tested on: B16 melanoma cells; test: B16 melanoma cell assay, clonogenic capacity in vitro after two-hour exposure; type: cell-based; settings: 2-hour exposure; read-out: IC50: concentration which inhibits cloning efficiency of B16 melanoma cells by 50%
Procedure: The B16 melanoma cell assay measures the ability of a compound to inhibit the clonogenic capacity of cells in vitro following a two-hour exposure to the compound.
B16 melanoma (highly metastatic subline, F10) are used and maintained as monolayer cultures in Minimal Essential Media (Grand Island Biological Col., Grand Island, N.Y.) supplemented with 10% calf serum, 1% antibiotics in a 5% CO2 humidified incubator at 37° C. Asynchronous populations of cells are harvested and replated to 5000 cells/plate in sterile 60 mm×15 mm petri plates. Plates are incubated overnight to allow attachment of the cells to the plate. Cells are treated with a Formula (I) or Formula (II) compound/under sterile conditions, allowed to react for 2 hours followed by aspiration of medium. Plates are washed one time with 5 ml of phosphate buffered saline (PBS), followed by the addition of 5 ml of fresh medium. Plates are incubated for 5 days at 37° C. in a CO2 incubator. Viability is measured by the ability of a cell to form a colony of greater than 50 cells. Colonies are fixed with 0.5% crystal violet in 95% ethanol. Plates are dried and counted with a Biotran III Automatic Count Totalizer (New Brunswick Scientific Co., Edison, N.J.). Mean and standard deviation of triplicate samples are determined for each drug concentration. The data are analyzed plotting the log of the survival fraction (number of colonies in drug treated plates/number of colonies in controls) versus the drug concentration.
^a Concentration which inhibits cloning efficiency of B16 melanoma
cells by 50% on a 2hour exposure

[2] = tested on: M5076 reticulum cell sarcoma; settings: 2 mg/kg ip, qD × 10
Procedure: B6D2F female mice are inoculated sc in the flank with 0.5 ml of a 10% (w:v) brei of M5076 prepared from pooled sc tumors excised at about Day 21 from C57Bl/6 donors. Treatment is initiated one day after tumor implantation, and is continued daily for 10 days. Tumors are measured 21 days after tumor implantation activity is determined by the degree of tumor growth inhibition.

[3] = tested on: P388 leukemia; test: ip P388 leukemia mouse model; type: in vivo, mice (B6D2F1)
Procedure: This tumor system is widely accepted as an antitumor agent screening tool because it is sensitive to virtually all of the clinically active antineoplastic agents; quantitative and reproducible; amenable for large-scale screening; and predictive for activity in other animal tumor models.
10^6 P388 leukemia cells are inoculated ip in B6D2F1 mice. Twenty-four hours later, if the tumor inoculum proves to be free of bacterial contamination (as determined by 24 hours incubation in thioglycollate broth), animals are randomized into groups of 6 and housed in shoebox cages. […] An equal volume of saline or water is added; if the drug comes out of solution an equal volume of Cremophor (polyethoxylated castor oil) is added and then saline or water, as to a concentration such that the desired dose is delivered in 0.5 ml. The final concentration of DMA, ethanol or Cremophor is 10 percent. Dilutions for lower doses are made with saline or water so that there is a decreasing proportion of organic solvents in the vehicle with decreasing dosage. […] Formulations are prepared immediately prior to injection. The Formula (I) and Formula (II) compounds are administered ip on Days 1 through 5 (i.e., treatment is initiated 24 hrs after tumor inoculation). Each experiment includes three groups of 6 animals as untreated controls and animals treated with a positive control, cisplatin, at two dose levels. Animals are weighed as a group on Days 1, 5 and 9 and average weight change (Δwt.) is used as a reflection of toxicity. Each experiment also includes an inoculum titration--groups of 8 mice inoculated ip with 10^5 to 10^0 P388 leukemia cells. The titration is used as a quality control check for the performance of the tumor model. Animals are monitored daily for mortality and experiments are terminated after 45 days. The endpoint is median survival time (MST) and increase in lifespan (ILS) which is the percentage of increase in MST relative to untreated controls.

[4] = tested on: B16 melanoma; test: in vivo ip B16 melanoma assay; design: species or system mice (B6D2F1); settings: ip qDX10
Procedure: Daily treatment is begun 24 hours after tumor implantation and is continued daily for ten (10) days. The route of drug administration is ip. The mice are monitored daily for survival for sixty (60) days. Antitumor activity is assessed by prolongation of median survival time. An ILS of ≥25% indicates activity in this tumor model.
^(b) maximally tolerated dose for B6D2F1 mice on an ip qDX10
^(c) maximum increase in lifespan produced in mice bearing ip B16

[5] = solubility in 9:1 water:ethanol (HPLC of filtrate)
Procedure: Such solubility was determined as follows: The compound in question was dissolved or suspended in absolute ethanol (250 mg solid per 1.0 ml ethanol). To the resulting solution or suspension, water (9.0 times the volume of ethanol) was added. This suspension was stirred vigorously for 15 hours, then filtered through a 0.45 μm poly(tetrafluoroethylene) (PTFE) filter. […] The HPLC system was as follows:
Column PLRP-S, 5μm, obtained from Polymer Laboratories, Inc.
Mobile Phase 9:1 acetonitrile:0.1% tetra-n-butylammonium hydrogen sulfate (50° C., 1.0 ml-min-^-1)
Detection Ultraviolet (250 nm)

[6] = tested on: mammary adenocarcinoma 16/c; test: sc mammary adenocarcinoma 16/c tumor model; type: in vivo, mice (C3H); settings: for Inhibition: Day 21
Procedure: In this experiment, the tumor was implanted sc in C3H mice, and the drug was administered ip or iv on an intermittent treatment schedule, i.e., once on days 1, 5, 9, 13 and 17. Tumors were measured 3 weeks after implantation, and activity was assessed by degree of tumor growth inhibition.
*N.P. = Proportion of mice without palpable tumors on Day 21

[7] = tested on: HT-29 human colon carcinoma cells; test: HT-29 human colon carcinoma cell killing in vitro; type: cell-based; settings: 2-hour exposure
[8] = tested on: M5076 reticulum cell sarcoma; test: ip M5076 reticulum cell sarcoma in mice; type: in vivo, mice (B6D2F female)
Procedure: Another tumor model used for evaluation of tumor growth inhibiting drugs is intraperitoneally implanted M5076 reticulum cell sarcoma in mice. […] Drugs are administered ip. Daily treatment is begun 24 hours after implantation and is continued for ten days. The treatment regimen for M5076 is more prolonged than for P388 because of the slower growth rate and longer control survival time of the M5076 tumor. Compounds of Formula (I) and Formula (II) were evaluated in this assay. An evaluation of several compounds of Formula (I) in the M5076 reticulum cell sarcoma assay at their maximally tolerated dose (MTD) is set forth in Table III. An ILS of ≥25% indicates activity in this tumor model.
^(b) maximally tolerated dose for B6D2F female mice on an ip qDX10
^(c) maximum increase in lifespan produced in mice bearing ip M5076

[9] = Experiment 1, ip, q4D × 5, 8 mg/kg
[10] = Experiment 2, ip, q4D × 5, 6 mg/kg
[11] = Experiment 2, iv, q4D × 5, 12 mg/kg
[12] = Experiment 3, ip, q4D × 5, 8 mg/kg

[Au+].[Cl-].c1ccc(P(CCP(c2ccccc2)c2ccccc2)c2ccccc2)cc1.c1ccc(P(CCP(c2ccccc2)c2ccccc2)c2ccccc2)cc1 [Compound No. 1, Bis[1,2-Bis(diphenylphosphino)ethane]Gold(I) Chloride]
IC50 [1]: 4.5 µM
% Inhibition of tumor growth (Day 21) [2]: 91% and 48%
N.P. (proportion of mice without palpable tumor on Day 21) [2]: 2/7 and 1/7
MTD (maximally tolerated dose) ([3]; B6D2F female mice, ip qDX5): 2 mg/kg
ILS max (maximum increase in lifespan) ([3]; mice bearing ip P388 leukemia, ip days 1-5 at MTD, slash-separated figures are separate experiments): 83 ± 24%
MTD (maximally tolerated dose) ([4]; B6D2F1 mice): 2 mg/kg
ILS (maximum increase in lifespan) ([4]; mice bearing ip B16 melanoma, slash-separated figures are separate experiments): 50% and 43% and 33% and 28% and 37%
solubility in 9:1 water:ethanol (in words) ([5]; 9:1 water:ethanol): true solution
Solubility in 9:1 Water:Ethanol ([5]; stirred 15 hours, 0.45 μm PTFE filter, HPLC): 170 µg/mL
solubility in water (in words) ([5]; water): forms a suspension in water
Mean Tumor Volume on Day 21 [6, 9]: 96 ± 143 mm^3
N.P. (proportion of mice without palpable tumors on Day 21) [6, 9]: 4/7
Inhibition [6, 9]: 92%
Mean Tumor Volume on Day 21 [6, 10]: 430 ± 291 mm^3
N.P. (proportion of mice without palpable tumors on Day 21) [6, 10]: 0/8
Inhibition [6, 10]: 61%
Mean Tumor Volume on Day 21 [6, 11]: 181 ± 163 mm^3
N.P. (proportion of mice without palpable tumors on Day 21) [6, 11]: 2/8
Inhibition [6, 11]: 84%
Mean Tumor Volume on Day 21 [6, 12]: 0 mm^3
N.P. (proportion of mice without palpable tumors on Day 21) [6, 12]: 5/5
Inhibition [6, 12]: 100%
effectively killed HT-29 cells following exposure to concentrations [7]: < 10 µM
MTD (maximally tolerated dose) ([8]; B6D2F female mice, ip qDX10): 2 mg/kg
ILS max (maximum increase in lifespan) ([8]; mice bearing ip M5076, ip qDX10 at MTD, slash-separated figures are separate experiments): 56% and 83% and 52% and 47% and 49%
